Test results reported in patent US10947242B2, “[1,2,4]triazolo[1,5and#8208;A]pyrimidine compounds as PDE2 inhibitors” (Janssen Pharmaceutica NV, priority 2016, dated 2021).
Where two headings read alike, the source gives them in different places.

Key:
Format in all cases: biochemical
[1] = target: T1, Human recombinant PDE10A (hPDE10A) (Homo sapiens, UniProt Q9Y233); assay: In vitro assay PDE10A, human clone (SPA, 3H-cAMP hydrolysis)
T1 construct: His tag (inferred from metal chelate purification); made in house; host or cells: Sf9 insect cells (baculovirus)
T1 sequence (Q9Y233 267-1055): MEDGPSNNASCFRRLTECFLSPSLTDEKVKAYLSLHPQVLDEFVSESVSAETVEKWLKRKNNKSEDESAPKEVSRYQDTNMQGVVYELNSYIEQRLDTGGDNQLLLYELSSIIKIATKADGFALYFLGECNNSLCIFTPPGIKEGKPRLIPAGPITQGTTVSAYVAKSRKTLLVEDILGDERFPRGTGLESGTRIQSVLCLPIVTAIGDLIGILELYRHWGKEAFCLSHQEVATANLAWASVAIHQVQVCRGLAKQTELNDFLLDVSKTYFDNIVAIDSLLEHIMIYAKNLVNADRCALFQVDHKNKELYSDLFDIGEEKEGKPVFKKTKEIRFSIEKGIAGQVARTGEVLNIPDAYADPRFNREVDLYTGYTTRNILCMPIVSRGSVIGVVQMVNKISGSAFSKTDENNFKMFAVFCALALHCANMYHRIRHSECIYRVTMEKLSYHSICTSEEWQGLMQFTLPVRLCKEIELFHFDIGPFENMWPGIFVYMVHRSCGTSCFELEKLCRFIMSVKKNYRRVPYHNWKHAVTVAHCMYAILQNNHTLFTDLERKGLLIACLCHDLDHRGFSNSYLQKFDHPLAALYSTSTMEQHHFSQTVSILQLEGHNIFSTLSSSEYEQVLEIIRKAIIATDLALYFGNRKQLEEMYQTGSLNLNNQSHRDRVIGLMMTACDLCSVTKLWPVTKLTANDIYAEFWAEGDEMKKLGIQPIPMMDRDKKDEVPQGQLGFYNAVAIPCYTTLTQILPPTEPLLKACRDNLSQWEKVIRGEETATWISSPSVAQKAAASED
Summary of the method: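 Human recombinant PDE10A was expressed in Sf9 cells via baculovirus and incubated with compound in 50 mM Tris pH 7.8, 8.3 mM MgCl2, 1.7 mM EGTA. Substrate was 60 nM cAMP plus 0.008 μCi 3H-cAMP for 60 min at room temperature, read by SPA scintillation counting. Controls used 1% DMSO, and blanks omitted enzyme.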

[2] = target: T2, Human recombinant PDE2A (hPDE2A) (Homo sapiens, UniProt O00408); assay: In vitro assay PDE2A (SPA, 3H-cGMP hydrolysis); conditions: for Emax: read-out: hPDE2A Emax
T2 construct: His tag (inferred from metal chelate purification); made in house; host or cells: Sf9 insect cells (baculovirus)
T2 sequence (O00408 whole entry): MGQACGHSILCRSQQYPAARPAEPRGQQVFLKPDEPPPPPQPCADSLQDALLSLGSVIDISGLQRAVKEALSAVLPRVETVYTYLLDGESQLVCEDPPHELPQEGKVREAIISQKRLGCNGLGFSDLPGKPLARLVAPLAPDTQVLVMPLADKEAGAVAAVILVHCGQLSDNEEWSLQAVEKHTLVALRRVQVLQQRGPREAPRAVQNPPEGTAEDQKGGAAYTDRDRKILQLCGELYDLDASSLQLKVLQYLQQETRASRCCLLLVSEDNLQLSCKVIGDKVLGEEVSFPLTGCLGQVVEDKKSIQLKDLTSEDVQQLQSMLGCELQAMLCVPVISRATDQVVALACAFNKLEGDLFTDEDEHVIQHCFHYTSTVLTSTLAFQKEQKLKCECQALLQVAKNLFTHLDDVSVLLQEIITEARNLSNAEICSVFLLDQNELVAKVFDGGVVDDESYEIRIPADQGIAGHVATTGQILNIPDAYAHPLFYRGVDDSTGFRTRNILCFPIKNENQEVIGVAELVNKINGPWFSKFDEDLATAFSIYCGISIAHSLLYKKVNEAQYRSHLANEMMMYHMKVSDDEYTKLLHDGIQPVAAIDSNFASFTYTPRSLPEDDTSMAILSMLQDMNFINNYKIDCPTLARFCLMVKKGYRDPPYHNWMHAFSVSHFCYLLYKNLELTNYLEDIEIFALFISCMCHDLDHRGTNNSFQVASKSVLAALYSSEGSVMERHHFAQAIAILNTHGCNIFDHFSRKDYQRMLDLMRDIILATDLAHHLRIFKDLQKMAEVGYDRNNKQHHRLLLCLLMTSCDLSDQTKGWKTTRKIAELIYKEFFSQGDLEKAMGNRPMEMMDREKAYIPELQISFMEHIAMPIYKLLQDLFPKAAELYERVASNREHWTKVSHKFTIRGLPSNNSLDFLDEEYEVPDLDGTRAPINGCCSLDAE

[3] = target: T3, Human recombinant PDE3A (hPDE3A) (Homo sapiens, UniProt Q14432); assay: In vitro assay PDE3A (SPA, 3H-cAMP hydrolysis); conditions: for IC50: hPDE3B pIC50; for Emax: read-out: hPDE3B Emax, read-out: Emax;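 on Emax: the method names PDE3A and the table heading PDE3B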
T3 construct: purchased Scottish Biomedical; host or cells: Sf9 insect cells
T3 sequence (Q14432 whole entry): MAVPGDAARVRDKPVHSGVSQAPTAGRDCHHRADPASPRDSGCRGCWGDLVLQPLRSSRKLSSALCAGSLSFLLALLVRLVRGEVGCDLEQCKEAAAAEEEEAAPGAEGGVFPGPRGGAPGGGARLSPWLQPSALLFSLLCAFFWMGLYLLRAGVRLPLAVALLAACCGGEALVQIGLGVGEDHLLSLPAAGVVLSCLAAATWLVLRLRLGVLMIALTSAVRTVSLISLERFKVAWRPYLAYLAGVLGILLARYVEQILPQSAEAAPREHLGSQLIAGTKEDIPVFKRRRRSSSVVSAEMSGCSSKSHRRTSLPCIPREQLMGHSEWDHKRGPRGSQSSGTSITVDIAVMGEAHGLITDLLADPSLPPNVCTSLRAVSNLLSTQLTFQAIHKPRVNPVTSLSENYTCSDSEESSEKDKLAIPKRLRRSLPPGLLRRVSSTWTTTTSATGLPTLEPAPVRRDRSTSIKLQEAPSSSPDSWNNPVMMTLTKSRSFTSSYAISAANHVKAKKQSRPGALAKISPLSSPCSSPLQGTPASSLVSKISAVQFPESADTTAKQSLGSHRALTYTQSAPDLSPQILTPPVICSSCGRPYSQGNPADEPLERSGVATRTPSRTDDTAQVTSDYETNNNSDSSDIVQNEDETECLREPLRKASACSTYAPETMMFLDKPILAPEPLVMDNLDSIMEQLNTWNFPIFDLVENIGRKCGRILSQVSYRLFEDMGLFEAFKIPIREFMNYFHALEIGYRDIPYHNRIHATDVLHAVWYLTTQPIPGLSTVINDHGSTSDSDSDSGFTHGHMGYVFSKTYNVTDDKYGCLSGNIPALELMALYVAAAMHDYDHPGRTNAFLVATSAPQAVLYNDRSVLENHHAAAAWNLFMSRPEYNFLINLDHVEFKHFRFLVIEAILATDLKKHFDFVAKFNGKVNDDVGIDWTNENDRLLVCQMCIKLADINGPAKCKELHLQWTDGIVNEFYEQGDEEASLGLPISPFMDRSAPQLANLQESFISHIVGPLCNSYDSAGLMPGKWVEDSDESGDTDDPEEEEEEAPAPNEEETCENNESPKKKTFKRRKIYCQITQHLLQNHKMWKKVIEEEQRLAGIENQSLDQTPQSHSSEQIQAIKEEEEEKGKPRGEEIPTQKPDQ
Summary of the method: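 Human PDE3A, cloned from brain, as partially purified Sf9 lysate. Substrate 0.4 μM cAMP plus [3H]-cAMP (2.4 μCi/ml final) in 50 mM Tris pH 7.8, 8.3 mM MgCl2, 1.7 mM EGTA, 60 min at room temperature, 1% DMSO final. Hydrolysis read by SPA scintillation counting against no-enzyme blanks and DMSO controls.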

[4] = human clone (h), default, read-out: hPDE10A2 Emax
[5] = human clone (h), default, read-out: hPDE10A2 pIC50 (converted)
[6] = human clone by default (no (r) mark), read-out: hPDE10A2 or rPDE10A2 Emax
[7] = human clone by default (no (r) mark), read-out: hPDE10A2 or rPDE10A2 pIC50 (converted)
[8] = read-out: hPDE2A pIC50 (converted)
[9] = human clone by default (no (r) mark)

Emax [1, 4] | IC50 [1, 5] | Emax [1, 6] | IC50 [1, 7] | Emax [2] | IC50 [2, 8] | IC50 ([3]; read-out: pIC50 (converted)) | Emax [3] | Compound | IC50 ([2]; hPDE2A pIC50) | IC50 ([1]; hPDE10A2 or rPDE10A2 pIC50, human clone by default (no (r) mark)) | IC50 [3] | hPDE10A2 or rPDE10A2 Emax [1, 9] | hPDE10A2 or rPDE10A2 pIC50 [1, 9] | hPDE2A Emax [2] | hPDE3B Emax [3]
39% | > 10000 nM | 39% | > 10000 nM | 95% | 457 nM | > 10000 nM | 17% | C[C@@H]1CCN(C(=O)c2ncccc2C(F)(F)F)C[C@H]1c1cc(C(F)F)nc2ncnn12 [Compound 253] |  |  |  |  |  |  | 
70% | 3800 nM | 70% | 3800 nM | 99% | 107 nM | > 10000 nM | 25% | C[C@@H]1CCN(C(=O)c2ccc(F)nc2)C[C@H]1c1cc(C(F)F)nc2ncnn12 [Compound 254] |  |  |  |  |  |  | 
58% | 7760 nM | 58% | 7760 nM | 95% | 269 nM | > 10000 nM | 28% | C[C@@H]1CCN(C(=O)c2cnc(CF)cn2)C[C@H]1c1cc(C(F)F)nc2ncnn12 [Compound 255] |  |  |  |  |  |  | 
48% |  | 48% |  | 97% | 324 nM | > 10000 nM | 12% | C[C@@H]1CCN(C(=O)c2ccncn2)C[C@H]1c1cc(C(F)F)nc2ncnn12 [Compound 256] |  |  |  |  |  |  | 
45% | > 10000 nM | 45% | > 10000 nM | 95% | 263 nM | > 10000 nM | 15% | C[C@@H]1CCN(C(=O)c2cnccn2)C[C@H]1c1cc(C(F)F)nc2ncnn12 [Compound 257] |  |  |  |  |  |  | 
90% | 1260 nM | 90% | 1260 nM | 99% | 151 nM | 1550 nM | 89% | C[C@@H]1CCN(C(=O)c2cc(C(C)(C)C)on2)C[C@H]1c1cc(C(F)F)nc2ncnn12 [Compound 258] |  |  |  |  |  |  | 
74% | 2950 nM | 74% | 2950 nM | 97% | 138 nM | > 10000 nM | 23% | Cc1oncc1C(=O)N1CC[C@@H](C)[C@H](c2cc(C(F)F)nc3ncnn23)C1 [Compound 260] |  |  |  |  |  |  | 
45% | > 10000 nM | 45% | > 10000 nM | 95% | 363 nM | > 10000 nM | 19% | C[C@@H]1CCN(C(=O)c2nccnc2N)C[C@H]1c1cc(C(F)F)nc2ncnn12 [Compound 261] |  |  |  |  |  |  | 
74% | 3240 nM | 74% | 3240 nM | 101% | 155 nM | > 10000 nM | 37% | C[C@@H]1CCN(C(=O)c2cccnc2F)C[C@H]1c1cc(C(F)F)nc2ncnn12 [Compound 262] |  |  |  |  |  |  | 
64% | 5130 nM | 64% | 5130 nM | 99% | 129 nM | 4900 nM | 65% | Cc1nc(C(F)(F)F)ccc1C(=O)N1CC[C@@H](C)[C@H](c2cc(C(F)F)nc3ncnn23)C1 [Compound 263] |  |  |  |  |  |  | 
74% | 3310 nM | 74% | 3310 nM | 100% | 105 nM | 10500 nM | 47% | Cc1nc(C)c(C(=O)N2CC[C@@H](C)[C@H](c3cc(C(F)F)nc4ncnn34)C2)s1 [Compound 264] |  |  |  |  |  |  | 
98% | 37.2 nM | 98% | 37.2 nM | 102% | 2.4 nM | 6310 nM | 55% | COc1ccc(C(=O)N2CC[C@@H](C)[C@H](c3cc(C(F)F)nc4ncnn34)C2)cc1C#N [Compound 265] |  |  |  |  |  |  | 
89% | 2630 nM | 89% | 2630 nM | 100% | 417 nM | 5370 nM | 74% | C[C@@H]1CCN(C(=O)c2cc(C(C)(C)C)nc(C(C)(C)C)c2)C[C@H]1c1cc(C(F)F)nc2ncnn12 [Compound 266] |  |  |  |  |  |  | 
39% | > 10000 nM | 39% | > 10000 nM | 82% | 1910 nM | > 10000 nM | 13% | C[C@@H]1CCN(C(=O)c2c(Cl)cncc2Cl)C[C@H]1c1cc(C(F)F)nc2ncnn12 [Compound 268] |  |  |  |  |  |  | 
 |  | 98% | 166 nM | 100% | 2.24 nM | 1290 nM | 93% | COc1nc(C2CC2)cc(C(=O)N2CC[C@@H](C)[C@H](c3cc(C(F)F)nc4ncnn34)C2)c1F [Compound 276] |  |  |  |  |  |  | 
 |  | 96% | 316 nM | 99% | 2.24 nM | 2820 nM | 86% | Cc1nc(C2CC2)cc(C(=O)N2CC[C@@H](C)[C@H](c3cc(C(F)F)nc4ncnn34)C2)c1F [Compound 279] |  |  |  |  |  |  | 
 |  | 93% | 417 nM | 101% | 2.69 nM | > 10000 nM | 44% | COCc1cc(C(=O)N2CC[C@@H](C)[C@H](c3cc(C(F)F)nc4ncnn34)C2)cc(C)n1 [Compound 288] |  |  |  |  |  |  | 
 |  | 99% | 63.1 nM | 100% | 2.4 nM | 178 nM | 98% | Cc1cc2ccc(C(=O)N3CC[C@@H](C)[C@H](c4cc(C(F)F)nc5ncnn45)C3)cn2c1 [Compound 289] |  |  |  |  |  |  | 
 |  |  |  |  |  |  |  | O=C(c1ccnc2ccccc12)N1[C@H]2CC[C@H](c3cc(C(F)F)nc4ncnn34)[C@@H]1CC2 [Compound 318] |  |  |  | 13 | <5 | 89 | 11

Compound | Emax [1, 4] | IC50 [1, 5] | Emax [1, 6] | IC50 [1, 7] | Emax [2] | IC50 [2, 8] | IC50 ([3]; read-out: pIC50 (converted)) | Emax [3] | IC50 ([2]; hPDE2A pIC50) | IC50 ([1]; hPDE10A2 or rPDE10A2 pIC50, human clone by default (no (r) mark)) | IC50 [3] | hPDE10A2 or rPDE10A2 Emax [1, 9] | hPDE10A2 or rPDE10A2 pIC50 [1, 9] | hPDE2A Emax [2] | hPDE3B Emax [3]
C[C@@H]1CCN(C(=O)c2cc(C(C)(C)C)cc(C(C)(C)C)c2)C[C@H]1c1cc(C(F)F)nc2ncnn12 [Compound 259] | 92% | 1700 nM | 92% | 1700 nM | 99% |  | 3550 nM | 82% | 427 nM |  |  |  |  |  | 
Cc1cc(C(=O)N2[C@H]3CC[C@@H]2[C@H](c2cc(C(F)F)nc4ncnn24)CC3)cc(C2CC2)n1 [Compound 274] | 63% | 6030 nM | 63% | 6030 nM | 97% | 288 nM | > 10000 nM | 7% |  |  |  |  |  |  | 
Cc1cc(C(=O)N2[C@H]3CC[C@@H]2[C@H](c2cc(C(F)F)nc4ncnn24)CC3)cc(C(F)(F)F)n1 [Compound 285] |  |  | 37% | > 10000 nM | 65% | 6920 nM | > 10000 nM | 21% |  |  |  |  |  |  | 
Cc1ccc2cc(C(=O)N3[C@H]4CC[C@H](c5cc(C(F)F)nc6ncnn56)[C@@H]3CC4)c(C)nc2c1 [Compound 298] |  |  | 47% | > 10000 nM | 99% | 18.6 nM | > 10000 nM | 25% |  |  |  |  |  |  | 
O=C(c1nc2ccccc2o1)N1[C@H]2CC[C@H](c3cc(C(F)F)nc4ncnn34)[C@@H]1CC2 [Compound 304] |  |  | 45% | > 10000 nM | 100% | 39.8 nM | 9120 nM | 48% |  |  |  |  |  |  | 
Cc1nc2cccc(C(=O)N3[C@H]4CC[C@H](c5cc(C(F)F)nc6ncnn56)[C@@H]3CC4)c2o1 [Compound 305] |  |  | 57% | 7080 nM | 100% | 87.1 nM | > 10000 nM | 7% |  |  |  |  |  |  | 
Cc1nc2cc(C(=O)N3[C@H]4CC[C@H](c5cc(C(F)F)nc6ncnn56)[C@@H]3CC4)ccc2o1 [Compound 306] |  |  | 74% |  | 100% |  |  | 71% | 44.7 nM | 3630 nM | 4470 nM |  |  |  | 
O=C(c1cccc2ncccc12)N1[C@H]2CC[C@H](c3cc(C(F)F)nc4ncnn34)[C@@H]1CC2 [Compound 315] |  |  | 47% | 9770 nM | 98% | 112 nM | > 10000 nM | 20% |  |  |  |  |  |  | 
O=C(c1cccc2cccnc12)N1[C@H]2CC[C@H](c3cc(C(F)F)nc4ncnn34)[C@@H]1CC2 [Compound 316] |  |  | 14% | > 10000 nM | 94% | 257 nM | > 10000 nM | 5% |  |  |  |  |  |  | 
O=C(c1ccnc2ccccc12)N1[C@H]2CC[C@H](c3cc(C(F)F)nc4ncnn34)[C@@H]1CC2 [Compound 317] |  |  |  | > 10000 nM | 99% |  | > 10000 nM | 15% |  |  |  | 34 |  |  | 
O=C(c1cccc2ccccc12)N1[C@H]2CC[C@H](c3cc(C(F)F)nc4ncnn34)[C@@H]1CC2 [Compound 320] |  |  | 62% | 7080 nM | 100% | 53.7 nM | > 10000 nM | 47% |  |  |  |  |  |  | 
